# From US5210193A, “Piperazine derivatives” (American Cyanamid Company, priority 1990, dated 1993)
# Where two headings read alike, the source gives them in different places.
# Experiments:
# Assay in all cases: in vitro antibacterial MIC, agar plate dilution
# Format in all cases: cell-based
# [1] = tested on: Proteus rettgeri IO 83-21; settings: Providencia rettgeri, IO8321, 18 h, 35° C., read-out: MIC
# Outline: (§1)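 MIC, mcg/ml: lowest concentration with no visible growth after 18 h incubation at 35° C. Mueller-Hinton agar dilution plates; ~10^4 CFU inoculum via Steers replicating device.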
# [2] = tested on: Streptococcus faecalis VGH 84-65; settings: Enterococcus faecalis, VGH8465, 18 h, 35° C., read-out: MIC
# Outline: as §1
# [3] = tested on: Klebsiella pneumoniae IO 83-5; settings: Klebsiella pneumoniae, IO835, 18 h, 35° C., read-out: MIC
# Outline: as §1
# [4] = tested on: Morganella morganii MOR 84-45; settings: Morganella morganii, MOR8445, 18 h, 35° C., read-out: MIC
# Outline: as §1
# [5] = tested on: Serratia marcescens IO 83-63; settings: IO8363, 18 hours, 35° C.
# Outline: as §1
# [6] = tested on: Streptococcus faecalis VGH 84-69; settings: Enterococcus faecalis, VGH8469, 18 h, 35° C., read-out: MIC
# Outline: as §1
# [7] = tested on: Staphylococcus aureus K 82-26; settings: Staphylococcus aureus, K8226, 18 h, 35° C., read-out: MIC
# Outline: as §1
# [8] = tested on: Providencia stuarti CMC 83-3; settings: Providencia, CMC833, 18 h, 35° C., read-out: MIC
# Outline: as §1
# [9] = tested on: Staphylococcus aureus ATTC 29213; settings: 35° C.
# Outline: as §1
# [10] = tested on: Serratia marcescens K 84-18; settings: Serratia marcescens, K8418, 18 h, 35° C., read-out: MIC
# Outline: as §1
# [11] = tested on: Enterobacter cloacae K 84-10; settings: Enterobacter cloacae, K8410, 18 h, 35° C., read-out: MIC
# Outline: as §1
# [12] = tested on: Staphylococcus aureus VGH 84-47; settings: Staphylococcus aureus, VGH8447, 18 h, 35° C., read-out: MIC
# Outline: as §1
# [13] = tested on: Pseudomonas aeruginosa VGH 84-4; settings: Pseudomonas aeruginosa, VGH844, 18 h, 35° C., read-out: MIC
# Outline: as §1
# [14] = tested on: Pseudomonas aeruginosa LL-1244; settings: Pseudomonas aeruginosa, LL1244, 18 h, 35° C., read-out: MIC
# Outline: as §1
# [15] = tested on: Escherichia coli CMC 84-50; settings: Escherichia coli, CMC8450, 18 h, 35° C., read-out: MIC
# Outline: as §1
# [16] = tested on: Proteus rettgeri CMC 84-41; settings: Providencia rettgeri, CMC8441, 18 h, 35° C., read-out: MIC
# Outline: as §1
# [17] = tested on: Klebsiella pneumoniae MOR 84-24; settings: Klebsiella pneumoniae, MOR8424, 18 h, 35° C., read-out: MIC
# Outline: as §1
# [18] = tested on: Escherichia coli VGH 84-19; settings: Escherichia coli, VGH8419, 18 h, 35° C., read-out: MIC
# Outline: as §1
# [19] = tested on: Escherichia coli CMC 84-11; settings: Escherichia coli, CMC8411, 18 h, 35° C., read-out: MIC
# Outline: as §1
# [20] = tested on: Streptococcus faecalis UCI 85-30; settings: Enterococcus faecalis, UCI8530, 18 h, 35° C., read-out: MIC
# Outline: as §1
# Escherichia coli LL 311 = settings: Escherichia coli, LL311, 18 h, 35° C., read-out: MIC
# Outline: as §1
# [21] = tested on: Staphylococcus aureus CMC 83-131; settings: Staphylococcus aureus, CMC83131, 18 h, 35° C., read-out: MIC
# Outline: as §1
# [22] = tested on: Enterobacter cloacae MOR 84-30; settings: Enterobacter cloacae, MOR8430, 18 h, 35° C., read-out: MIC
# Outline: as §1
# [23] = tested on: Escherichia coli MOR 84-20; settings: Escherichia coli, MOR8420, 18 h, 35° C., read-out: MIC
# Outline: as §1
# [24] = tested on: Pseudomonas aeruginosa K 84-16; settings: Pseudomonas aeruginosa, K8416, 18 h, 35° C., read-out: MIC
# Outline: as §1
# [25] = tested on: Staphylococcus aureus VGH 84-45; settings: Staphylococcus aureus, VGH8445, 18 h, 35° C., read-out: MIC
# Outline: as §1
# [26] = tested on: Serratia marcescens MOR 84-41; settings: Serratia marcescens, MOR8441, 18 h, 35° C., read-out: MIC
# Outline: as §1
# [27] = tested on: Morganella morganii CMC 84-38; settings: Morganella morganii, CMC8438, 18 h, 35° C., read-out: MIC
# Outline: as §1
# [28] = tested on: Streptococcus faecalis UCI 85-19; settings: Enterococcus faecalis, UCI8519, 18 h, 35° C., read-out: MIC
# Outline: as §1
# [29] = tested on: Pseudomonas aeruginosa CMC 83-20; settings: Pseudomonas aeruginosa, CMC8320, 18 h, 35° C., read-out: MIC
# Outline: as §1
# [30] = tested on: Serratia marcescens VGH 84-30; settings: Serratia marcescens, VGH8430, 18 h, 35° C., read-out: MIC
# Outline: as §1
# [31] = tested on: Klebsiella pneumoniae CMC 84-31; settings: Klebsiella pneumoniae, CMC8431, 18 h, 35° C., read-out: MIC
# Outline: as §1
# [32] = Staphylococcus aureus, ATTC29213, 18 h, read-out: MIC
SMILES,MIC [1] [µg/mL],MIC [2] [µg/mL],MIC [3] [µg/mL],MIC [4] [µg/mL],MIC [5] [µg/mL],MIC [6] [µg/mL],MIC [7] [µg/mL],MIC [8] [µg/mL],"MIC [9, 32] [µg/mL]",MIC [10] [µg/mL],MIC [11] [µg/mL],MIC [12] [µg/mL],MIC [13] [µg/mL],MIC [14] [µg/mL],MIC [15] [µg/mL],MIC [16] [µg/mL],MIC [17] [µg/mL],MIC [18] [µg/mL],MIC [19] [µg/mL],MIC [20] [µg/mL],also measured
"CCn1cc(C(=O)O)c(=O)c2cc(F)c(N3CCN(C)C(c4ccnn4C)C3)cc21 (centres unmarked) [Example 110, 1-Ethyl-6-fluoro-1,4-dihydro-7-[4-methyl-3-(1-methyl-1H-pyrazol-5-yl) -1-piperazinyl]-4-oxo-3-quinolinecarboxylic acid]",16,8,16,8,> 16,16,16,> 16,0.5,8,4,1,128,128,4,4,16,4,2,> 16,MIC ([9]; 18 hours): 1 µg/mL; MIC (Escherichia coli LL 311): 2 µg/mL; MIC [21]: 2 µg/mL; MIC [22]: > 16 µg/mL; MIC [23]: 4 µg/mL; MIC [24]: > 16 µg/mL; MIC [25]: 0.5 µg/mL; MIC [26]: > 16 µg/mL; MIC [27]: 8 µg/mL; MIC [28]: 8 µg/mL; MIC [29]: > 16 µg/mL; MIC [30]: > 128 µg/mL; MIC [31]: 8 µg/mL
"CN1CCN(c2c(F)c(F)c3c(=O)c(C(=O)O)cn(C4CC4)c3c2F)CC1 [Example 111, 1Cyclopropyl-5,6,8-trifluoro-1,4-dihydro-7-(4-methyl-1-piperazinyl) -4-oxo-3-quinolinecarboxylic acid]",0.008,4,0.06,0.004,0.25,2,1,4,0.25,0.12,0.004,0.12,2,4,0.004,0.03,0.06,0.004,0.015,2,MIC (Escherichia coli LL 311): 0.015 µg/mL; MIC [21]: 0.25 µg/mL; MIC [22]: 0.06 µg/mL; MIC [23]: 0.004 µg/mL; MIC [24]: 4 µg/mL; MIC [25]: 0.12 µg/mL; MIC [26]: 0.06 µg/mL; MIC [27]: 0.008 µg/mL; MIC [28]: 4 µg/mL; MIC [29]: 4 µg/mL; MIC [30]: 2 µg/mL; MIC [31]: 0.015 µg/mL
